These are literature values, as cited in patent EP0076676B1, “Process for using endorphins as antitumour agents” (TNI PHARMACEUTICALS, INC., priority 1981, dated 1986).

For the data set, the system named is phenylalanyl-t RNA synthetase. As to conditions: observed by Laidow et al, J.B.C. 255 (1980).

Take beta-endorphin: the “inhibition of phenylalanyl-t RNA synthetase” value is “inhibit”.
